Bridges are numbered along the chain shown (N, C = ends). Where no end group is shown, it is not given here.
Experiments:
Assay type in all cases: cell-based
[1] = tested on: human adipocytes; assay: Glycerol release assay; details: for Lipid mobilizing activity: control hormones, Example 2; for Ability to promote lipid mobilization in human adipocytes: conclusion of Example 2
Description: (§1) Human pre-adipocytes were isolated by liposuction and maintained in AGM for three weeks in order to permit the pre-adipocytes to differentiate to become mature adipocytes. AGM was removed, and adipocytes were incubated in Krebs-Ringers buffer comprising 0.1% fatty acid-free BSA at 37° C. for five hours in the presence of selected concentrations (10^−9 to 10^−5 molar) of one of Schistocera gregaria AKH II, cockroach hypertrehalosemic factor (obtained from Sigma Chemical Co, St. Louis, Mo., catalog number P0175), and Locusta migratoria AKH I (obtained from American Peptide Co., Sunnyvale, Calif., catalog number 60-9-18). Glycerol released from the adipocytes was assayed using a commercially available kit (GPO-trinder assay kit available form Sigma Chemical Company, St. Louis, Mo.).
A similar experiment was performed, in which glycerol release from adipocytes was assessed in the presence of the Locusta migratoria AKH I or the cockroach hypertrehalosemic factor or in the presence of isoproterenol.

[2] = tested on: human adipocytes; assay: Effect of propanolol on agent-induced glycerol release; details: for Glycerol Release, No Agent (medium concentration in millimolar): propanolol alone
Description: as §1
Glycerol release assays were performed as described in Example 2, except that the assays were performed using single selected concentrations of one of cockroach hypertrehalosemic factor, Locusta migratoria AKH I, and isoproterenol and multiple selected concentrations of propanolol.

[3] = tested on: human adipocytes; assay: Release of tritium label from radiolabeled palmitate (lipid mobilizing activity); details: for Ability to mobilize lipids in adipocytes: conclusion of Example 1, murine adipocytes
Description: Lipid mobilizing activity was assessed by assaying release of tritium label from radiolabeled palmitate. This assay was performed by maintaining human pre-adipocytes in Adipocyte Growth Medium (AGM), which is Dulbecco's Modified Eagle's Medium (DMEM) mixed 1:1 by volume with Ham's F-10 medium. Ham's F-10 medium comprises 15 millimolar HEPES buffer adjusted to pH 7.4 and supplemented with biotin, pantothenate, human recombinant insulin, dexamethasone, fungicide, bactericide, and 3% (v/v) fetal bovine serum). Pre-adipocytes differentiated to become mature adipocytes by three weeks of maintenance in AGM. On the day prior to assay, the adipocytes were washed and incubated overnight in Krebs-Ringers buffer comprising 0.1% fatty acid-free bovine serum albumin (BSA) and comprising 1 microCurie per milliliter of tritiated (9,10-^3H) palmitate. The following day, the medium was removed, and the cells were washed three times […]. Isoproterenol (0 to 5×10^−8 molar), Schistocera gregaria AKH II (0 to 5×10^−5 molar), or Krebs-Ringer buffer (with 0.1% fatty acid-free BSA) containing neither of these was added to the cell suspension in a volume of 150 microliters. The suspensions were incubated for 4 hours at 37° C., and then 100 microliters of each sample was subjected to scintillation counting to detect released label in the supernatant. The total amount of label incorporated was determined for each well by solubilizing the cells using 1% sodium dodecyl sulfate and subjecting the entire contents of the well to scintillation counting. Fractional release of label was calculated by dividing the amount of label detected in cell supernatant by the total amount of label detected in the supernatant and in the cells remaining in the well, and percentage release was calculated by multiplying fractional release by 100.
A similar study was done using the same methods, except that cockroach hypertrehalosemic factor (0 to 5×10^−5 molar) was used in place of S. gregaria AKH II.
A similar tritium label release experiment performed using Heliothis zea AKH II and Locusta migratoria, except that a two-hour incubation period was used in place of a 4 hour incubation period.

[4] = agent 1 × 10^−8 molar, 4 hours, 37° C., Table 5 experiment
[5] = agent 1 × 10^−9 molar, 4 hours, 37° C., Table 5 experiment
[6] = agent 1 × 10^−10 molar, 4 hours, 37° C., Table 5 experiment
[7] = agent 1 × 10^−5 molar, five hours, 37° C., Table 8 experiment
[8] = agent 1 × 10^−6 molar, five hours, 37° C., Table 8 experiment
[9] = agent 1 × 10^−7 molar, five hours, 37° C., Table 8 experiment
[10] = agent 1 × 10^−8 molar, five hours, 37° C., Table 8 experiment
[11] = agent 1 × 10^−9 molar, five hours, 37° C., Table 8 experiment
[12] = agent 1 × 10^−6, Table 9 experiment
[13] = agent 1 × 10^−7, Table 9 experiment
[14] = agent 1 × 10^−8, Table 9 experiment

How did the Lipid mobilizing activity [1] turn out when “SYSMEHFRWGKPV (Ac-SYSMEHFRWGKPV-NH2; listed as Insect sp.) [alpha-melanocyte stimulating hormone, reference compound]” was run?
Its Lipid mobilizing activity is “No lipid mobilizing activity could be detected”.

Which “Inhibition by propanolol of glycerol release induced by isoproterenol” value ([2]; adipocytes) does the source give for `CC(C)NCC(O)COc1cccc2ccccc12` (stereo not shown) [Propanolol, propanolol] here?
Its value is “able to inhibit glycerol release”.

What about the “Glycerol Release, No Agent (medium concentration in millimolar)” value (shortened to “Glycerol Release, No Agent”) ([2]; 1 × 10^−5 molar) of the same compound?
The value was 0.0463 ± 0.0042 millimolar.

What about the “Glycerol Release, No Agent” value ([2]; 1 × 10^−6 molar) of the same compound?
Its value is 0.0417 ± .00072 millimolar.

And the “Glycerol Release, No Agent” value ([2]; 1 × 10^−7 molar)?
Its value is 0.0399 ± 0.0069 millimolar.

What about the “Glycerol Release, No Agent” value ([2]; 1 × 10^−8 molar) of the same compound?
Its value is 0.0399 ± 0.0083 millimolar.

“ELNFSTGW (listed as Schistocerca gregaria) [Schistocera gregaria AKH II, insect adipokinetic hormone of the desert locust]” was tested. Which “% Tritium Label Release with Agent” value ([3]; agent 1 × 10^−5 molar, 4 hours, 37° C., Table 5 experiment) did it give?
Its value is 14.28%.

What about the “% Tritium Label Release with Agent” value ([3]; agent 1 × 10^−6 molar, 4 hours, 37° C., Table 5 experiment) of the same compound?
Its value is 13.38%.

And the “% Tritium Label Release with Agent” value ([3]; agent 1 × 10^−7 molar, 4 hours, 37° C., Table 5 experiment)?
The value was 10.76%.

What about the “% Tritium Label Release with Agent” value [3, 4] of the same compound?
Its value is 10.76%.

And the “% Tritium Label Release with Agent” value [3, 5]?
The value was 9.6%.

What about the “% Tritium Label Release with Agent” value [3, 6] of the same compound?
The value was 10.74%.

What about the “% Tritium Label Release with Agent” value ([3]; agent 5 × 10^−5 molar, 4 hours, 37° C., Table 5 experiment) of the same compound?
The value was 16.65%.

And the “% Tritium Label Release with Agent” value ([3]; agent 5 × 10^−6 molar, 4 hours, 37° C., Table 5 experiment)?
Its value is 14.94%.

What about the “% Tritium Label Release with Agent” value ([3]; agent 5 × 10^−7 molar, 4 hours, 37° C., Table 5 experiment) of the same compound?
Its value is 11.31%.

What about the “Ability to mobilize lipids in adipocytes” value [3] of the same compound?
Its value is “able to mobilize lipids”.

And the “Glycerol Release with Agent (medium concentration in millimolar)” value (“Glycerol Release with Agent” below) [1, 7]?
Its value is 0.693 millimolar.

And the “Glycerol Release with Agent” value [1, 8]?
The value was 0.628 millimolar.

And the “Glycerol Release with Agent” value [1, 9]?
The value was 0.530 millimolar.

And the “Glycerol Release with Agent” value [1, 10]?
Its value is 0.523 millimolar.

And the “Glycerol Release with Agent” value [1, 11]?
Its value is 0.486 millimolar.

And the “Ability to promote lipid mobilization in human adipocytes” value [1]?
Its value is “able to promote lipid mobilization”.

Which Lipid mobilizing activity [1] does the source give for “DFDMLRCMLGRVYRPCWQV (disulfide 7-16 (inferred); listed as Insect sp.) [melanocyte concentrating hormone, reference compound]” here?
Its Lipid mobilizing activity is “No lipid mobilizing activity could be detected”.

What does the source list for “ELNFTPNWGT (listed as Schistocerca gregaria) [Locusta migratoria AKH I, insect adipokinetic hormone, American Peptide Co. catalog number 60-9-18]”?
Glycerol Release with Agent (medium concentration in millimolar) ([2]; agent 10 micromolar, propanolol 0 molar): 0.0871 ± 0.0134 millimolar; Glycerol Release with Agent (medium concentration in millimolar) ([2]; agent 10 micromolar, propanolol 1 × 10^−5 molar): 0.2214 ± 0.0287 millimolar; Glycerol Release with Agent (medium concentration in millimolar) ([2]; agent 10 micromolar, propanolol 1 × 10^−6 molar): 0.2169 ± 0.0294 millimolar; Glycerol Release with Agent (medium concentration in millimolar) ([2]; agent 10 micromolar, propanolol 1 × 10^−7 molar): 0.2486 ± 0.0249 millimolar; % Tritium Label Release with Agent ([3]; agent 1 × 10^−5 molar, two-hour incubation, Table 7): 10.8%; % Tritium Label Release with Agent ([3]; agent 1 × 10^−6 molar, two-hour incubation, Table 7): 7.52%; % Tritium Label Release with Agent ([3]; agent 1 × 10^−7 molar, two-hour incubation, Table 7): 6.34%; % Tritium Label Release with Agent ([3]; agent 1 × 10^−8 molar, two-hour incubation, Table 7): 7.00%; % Tritium Label Release with Agent ([3]; agent 1 × 10^−9 molar, two-hour incubation, Table 7): 7.44%; % Tritium Label Release with Agent ([3]; agent 1 × 10^−10 molar, two-hour incubation, Table 7): 7.62%; Ability to mobilize lipids in adipocytes [3]: able to mobilize lipids; Glycerol Release with Agent (medium concentration in millimolar) ([1]; agent 1 × 10^−5, Table 9 experiment): 0.0871 ± 0.0134 millimolar; Glycerol Release with Agent (medium concentration in millimolar) [1, 7]: 0.691 millimolar; Glycerol Release with Agent (medium concentration in millimolar) [1, 12]: 0.0427 ± 0.0129 millimolar; Glycerol Release with Agent (medium concentration in millimolar) [1, 8]: 0.467 millimolar; Glycerol Release with Agent (medium concentration in millimolar) [1, 13]: 0.0336 ± 0.0082 millimolar; Glycerol Release with Agent (medium concentration in millimolar) [1, 9]: 0.490 millimolar; Glycerol Release with Agent (medium concentration in millimolar) [1, 14]: 0.0209 ± 0.0110 millimolar; Glycerol Release with Agent (medium concentration in millimolar) [1, 10]: 0.476 millimolar; Glycerol Release with Agent (medium concentration in millimolar) [1, 11]: 0.611 millimolar; Ability to promote lipid mobilization in human adipocytes [1]: able to promote lipid mobilization

With `CC(C)NCC(O)c1ccc(O)c(O)c1` (stereo not shown) [Isoproterenol, isoproterenol, reference compound] as the compound, how does the “Glycerol Release with Agent” value ([2]; agent 1 micromolar, propanolol 0 molar) read?
The value was 0.5172 millimolar.

What about the “Glycerol Release with Agent” value ([2]; agent 1 micromolar, propanolol 1 × 10^−5 molar) of the same compound?
The value was 0.2305 millimolar.

And the “Glycerol Release with Agent” value ([2]; agent 1 micromolar, propanolol 1 × 10^−6 molar)?
Its value is 0.411 millimolar.

And the “Glycerol Release with Agent” value ([2]; agent 1 micromolar, propanolol 1 × 10^−7 molar)?
The value was 0.6533 millimolar.

What about the “% Tritium Label Release with Agent” value [3, 4] of the same compound?
The value was 15.58%.

What about the “% Tritium Label Release with Agent” value ([3]; agent 1 × 10^−8 molar, 4 hours, 37° C., Table 6 experiment) of the same compound?
The value was 9.8%.

What about the “% Tritium Label Release with Agent” value [3, 5] of the same compound?
The value was 12.67%.

What about the “% Tritium Label Release with Agent” value ([3]; agent 1 × 10^−9 molar, 4 hours, 37° C., Table 6 experiment) of the same compound?
The value was 6.67%.

And the “% Tritium Label Release with Agent” value [3, 6]?
The value was 11.11%.

What about the “% Tritium Label Release with Agent” value ([3]; agent 1 × 10^−10 molar, 4 hours, 37° C., Table 6 experiment) of the same compound?
The value was 8.97%.

What about the “% Tritium Label Release with Agent” value ([3]; agent 1 × 10^−11 molar, 4 hours, 37° C., Table 5 experiment) of the same compound?
The value was 9.9%.

And the “% Tritium Label Release with Agent” value ([3]; agent 1 × 10^−11 molar, 4 hours, 37° C., Table 6 experiment)?
Its value is 5.87%.

And the “% Tritium Label Release with Agent” value ([3]; agent 5 × 10^−8 molar, 4 hours, 37° C., Table 5 experiment)?
The value was 16.99%.

And the “% Tritium Label Release with Agent” value ([3]; agent 5 × 10^−8 molar, 4 hours, 37° C., Table 6 experiment)?
The value was 10.8%.

What about the “% Tritium Label Release with Agent” value ([3]; agent 5 × 10^−9 molar, 4 hours, 37° C., Table 5 experiment) of the same compound?
The value was 14.14%.

What about the “% Tritium Label Release with Agent” value ([3]; agent 5 × 10^−9 molar, 4 hours, 37° C., Table 6 experiment) of the same compound?
The value was 5.93%.

What about the “% Tritium Label Release with Agent” value ([3]; agent 5 × 10^−10 molar, 4 hours, 37° C., Table 5 experiment) of the same compound?
Its value is 11.21%.

And the “% Tritium Label Release with Agent” value ([3]; agent 5 × 10^−10 molar, 4 hours, 37° C., Table 6 experiment)?
Its value is 7.58%.

What about the “% Tritium Label Release with Agent” value ([3]; agent 5 × 10^−11 molar, 4 hours, 37° C., Table 5 experiment) of the same compound?
Its value is 10.62%.

What about the “% Tritium Label Release with Agent” value ([3]; agent 5 × 10^−11 molar, 4 hours, 37° C., Table 6 experiment) of the same compound?
The value was 6.96%.

What about the “% Tritium Label Release with Agent” value ([3]; agent 5 × 10^−12 molar, 4 hours, 37° C., Table 5 experiment) of the same compound?
Its value is 10.12%.

And the “% Tritium Label Release with Agent” value ([3]; agent 5 × 10^−12 molar, 4 hours, 37° C., Table 6 experiment)?
Its value is 6.81%.

What about the “Glycerol Release with Agent” value [1, 12] of the same compound?
Its value is 0.5172 ± 0.1659 millimolar.

And the “Glycerol Release with Agent” value [1, 13]?
The value was 0.2169 ± 0.0316 millimolar.

And the “Glycerol Release with Agent” value [1, 14]?
Its value is 0.1325 ± 0.0244 millimolar.

And the “Glycerol Release with Agent” value ([1]; agent 1 × 10^−9, Table 9 experiment)?
The value was 0.0381 ± 0.011 millimolar.

Reference: patent US20040224898A1, “Compositions and methods for promoting lipid mobilization in humans” (priority 2002, published 2004)
